12 compounds from patent US20210094973A1, “HETEROCYCLIC COMPOUNDS” (Hoffmann-La Roche Inc., priority 2019, published 2021) can be followed below.

What is called IC50 is the concentration that inhibits the measured activity by half. Lower therefore signals inhibition by little substance.

For this experiment, the target named is T1, MAGL (Homo sapiens, UniProt Q99685).
T1 sequence (Q99685 1-303): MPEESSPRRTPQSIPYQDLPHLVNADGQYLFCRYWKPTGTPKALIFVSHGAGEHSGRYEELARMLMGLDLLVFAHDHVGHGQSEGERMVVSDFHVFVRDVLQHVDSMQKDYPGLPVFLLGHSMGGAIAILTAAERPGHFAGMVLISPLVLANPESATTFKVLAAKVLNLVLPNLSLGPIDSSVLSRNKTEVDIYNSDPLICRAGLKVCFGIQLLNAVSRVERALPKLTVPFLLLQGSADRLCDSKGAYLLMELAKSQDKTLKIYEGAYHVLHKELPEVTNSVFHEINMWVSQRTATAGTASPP
The experiment is described as follows: 2-AG assay (MAGL inhibitory activity, hydrolysis of 2-arachidonoylglycerol followed by mass spectrometry). It is filed as biochemical. The conditions noted are these: 15 min preincubation at RT, 8 μM 2-arachidonoylglycerol, 30 min at RT, arachidonic acid by MS. The procedure:
Compounds were profiled for MAGL inhibitory activity by determining the enzymatic activity by following the hydrolysis of the natural substrate 2-arachidonoylglycerol (2-AG) resulting in arachidonic acid, which can be followed by mass spectrometry. This assay is hereinafter abbreviated “2-AG assay”.
The 2-AG assay was carried out in 384 well assay plates (PP, Greiner Cat #784201) in a total volume of 20 μL. Compound dilutions were made in 100% DMSO (VWR Chemicals 23500.297) in a polypropylene plate in 3-fold dilution steps to give a final concentration range in the assay from 12.5 μM to […]. 0.25 μL compound dilutions (100% DMSO) were added to 9 μL MAGL in assay buffer (50 mM TRIS (GIBCO, 15567-027), 1 mM EDTA (Fluka, 03690-100 mL), 0.01% (v/v) Tween. After shaking, the plate was incubated for 15 min at RT. To start the reaction, 10 μL 2-arachidonoylglycerol in assay buffer was added. The final concentrations in the assay was […] and 8 μM 2-arachidonoylglyerol. After shaking and 30 min incubation at RT, the reaction was quenched by the addition of 40 μL of ACN containing 4 μM of d8-arachidonic acid. The amount of arachidonic acid was traced by an online SPE system (Agilent Rapidfire) coupled to a triple quadrupole mass spectrometer (Agilent 6460). A C18 SPE cartridge (G9205A) was used in an ACN/water liquid setup. The mass spectrometer was operated in negative electrospray mode following the mass transitions 303.1→259.1 for arachidonic acid and 311.1→267.0 for d8-arachidonic acid. The activity of the compounds was calculated based on the ratio of intensities [arachidonic acid/d8-arachidonic acid].
For `O=C1CO[C@H]2CCN(C(=O)N3CC(OCc4ccc(OC(F)F)cc4)C3)C[C@H]2N1` [Example 40, (4aR,8aS)-6-(3-((4-(Difluoromethoxy)benzyl)oxy)azetidine-1-carbonyl)hexahydro-2H-pyrido[4,3-b][1,4]oxazin-3(4H)-one], it took 46.9 nM to reach half-maximal inhibition (IC50). This counts as double-digit nanomolar.
As for `O=C1CO[C@H]2CCN(C(=O)C3CC(OCc4ccc(C(F)(F)F)cc4Cl)C3)C[C@H]2N1` (stereo partly drawn) [Example 41, (4aR,8aS)-6-(3-((2-Chloro-4-(trifluoromethyl)benzyl)oxy)cyclobutane-1-carbonyl)hexahydro-2H-pyrido[4,3-b][1,4]oxazin-3(4H)-one], the figure is 774 nM; as for `O=C1CO[C@H]2CCN(C(=O)[C@H]3C[C@H](OCc4ccc(C(F)(F)F)cc4Cl)C3)C[C@H]2N1` [Example 42, (4aR,8aS)-6-(3-((2-Chloro-4-(trifluoromethyl)benzyl)oxy)cyclobutane-1-carbonyl)hexahydro-2H-pyrido[4,3-b][1,4]oxazin-3(4H)-one], 261 nM.
For `O=C1CO[C@H]2CCN(C(=O)N3CC(OCc4ccc(C(F)(F)F)cn4)C3)C[C@H]2N1` [Example 43, (4aR,8aS)-6-(3-((5-(Trifluoromethyl)pyridin-2-yl)methoxy)azetidine-1-carbonyl)hexahydro-2H-pyrido[4,3-b][1,4]oxazin-3(4H)-one] the value was 159 nM; for `O=C1CO[C@H]2CCN(C(=O)N3CC(OCc4ccc(OC(F)(F)F)cc4)C3)C[C@H]2N1` [Example 44, (4aR,8aS)-6-(3-((4-(Trifluoromethoxy)benzyl)oxy)azetidine-1-carbonyl)hexahydro-2H-pyrido[4,3-b][1,4]oxazin-3(4H)-one], 23.6 nM; for `O=C1CO[C@H]2CCN(C(=O)N3CC(C(=O)Nc4ccc(F)cc4Cl)C3)C[C@H]2N1` [Example 45, N-(2-chloro-4-fluorophenyl)-1-((4aR,8aS)-3-oxooctahydro-2H-pyrido[4,3-b][1,4]oxazine-6-carbonyl)azetidine-3-carboxamide], 1250 nM.
As for `CC(Oc1ccc(C(F)(F)F)cc1Cl)C1CN(C(=O)N2CC[C@H]3OCC(=O)N[C@H]3C2)C1` (stereo partly drawn) [Example 46, (4aS,8aR)-6-(3-(1-(2-Chloro-4-(trifluoromethyl)phenoxy)ethyl)azetidine-1-carbonyl)hexahydro-2H-pyrido[4,3-b][1,4]oxazin-3(4H)-one], the figure is 225 nM; as for `O=C1CO[C@H]2CCN(C(=O)N3CCC(c4ccnnc4C(F)(F)F)CC3)C[C@H]2N1` [Example 47, (4aR,8aS)-6-(4-(3-(Trifluoromethyl)pyridazin-4-yl)piperidine-1-carbonyl)hexahydro-2H-pyrido[4,3-b][1,4]oxazin-3(4H)-one], 90.9 nM; as for `O=C1CO[C@H]2CCN(C(=O)N3CC(c4nnc(-c5ccc(F)cc5F)[nH]4)C3)C[C@H]2N1` [Example 48, (4aR,8aS)-6-[3-[5-(2,4-Difluorophenyl)-4H-1,2,4-triazol-3-yl]azetidine-1-carbonyl]-4,4a,5,7,8,8a-hexahydropyrido[4,3-b][1,4]oxazin-3-one], 333 nM.
In turn, `O=C1CO[C@H]2CCN(C(=O)N3CC(OCc4ccc(F)cc4C(F)(F)F)C3)C[C@H]2N1` [Example 49, (4aR,8aS)-6-[3-[[4-Fluoro-2-(trifluoromethyl)phenyl]methoxy]azetidine-1-carbonyl]-4,4a,5,7,8,8a-hexahydropyrido[4,3-b][1,4]oxazin-3-one] showed an IC50 of 34 nM.
For “(4aR,8aS)-6-[rel-(3R,4R)-4-[(2-chloro-4-fluoro-phenoxy)methyl]-3-methyl-piperidine-1-carbonyl]-4,4a,5,7,8,8a-hexahydropyrido[4,3-b][1,4]oxazin-3-one [Example 38]” the value was 6.4 nM.
As for “(4aR,8aS)-6-[rel-(3R,4R)-4-[(2-chloro-4-fluoro-phenoxy)methyl]-3-methyl-piperidine-1-carbonyl]-4,4a,5,7,8,8a-hexahydropyrido[4,3-b][1,4]oxazin-3-one [Example 39]”, the figure is 1.9 nM.
